Measured values as given in patent US20260207563A1, “UREA COMPOUNDS AS ACTIVATORS OF POTASSIUM CHANNELS KV7.2/7.3 USEFUL IN THE TREATMENT OF CNS AND PNS DISORDERS” (ANGELINI PHARMA S.P.A., priority 2022, published 2026).

Target: T1, heteromeric KV7.2/KV7.3 channels (KCNQ2, KCNQ3) (Homo sapiens, UniProt O43525+O43526)
T1 construct: expressed in transfected cells; host or cells: CHO-K1
Test: Automated patch-clamp (Sophion Qube 384) potency assay against KV7.2/KV7.3 channels
Type: cell-based
Details: CHO-K1/Kv7.2/Kv7.3 cells; for EC50: EC50 from concentration-response of shift in Vhalf, 10 concentrations up to 30 μM, read-out: Kv7.2/7.3 EC50; for Kv7.2/7.3 ΔV1/2: maximal shift in the Vhalf from the top of the curve
Source text: Assessment of In Vitro Potency Against KV7.2/KV7.3 Channels
An automated patch-clamp assay on the Sophion Qube 384 was developed for potency testing to identify small molecule activators of heteromeric KV7.2/KV7.3 channels (KCNQ2, Uniprot ID 043526; KCNQ3, Uniprot 043525).
The cell line used was a stably transfected CHO-K1 cell line with constitutive KV7.2/KV7.3 expression.
CHO-K1/Kv7.2/Kv7.3 cells were maintained in the following culture media: • DMEM/F-12 with GlutaMAX™ (Gibco 31331-028), • 10% Fetal clone 2 serum (Perbio Science SH30066.03), • 1 mg/ml Geneticin™ selective antibiotic (G418, Invitrogen 1013027), and • 5 μg/ml BlasticidinS HCl (Invivogen Ant-bl-5).
On the day of the experiment, cells were resuspended in serum free media, counted and diluted to a final concentration of 3.5×10^6 cells per ml of media.
Cells were then placed onto the Sophion Qube 384 and rested for a minimum of 1 hour.
The following solutions were used for recording: • extracellular solution (in mM): 145 NaCl, 4 KCl, 1 MgCl2, 2 CaCl2), 10 HEPES, 10 glucose, pH 7.4, 315-320 mOsm. • intracellular solution (in mM): 120 KCl, 5.74 CaCl2), 1.75 MgCl2, 10 EGTA, 10 HEPES, 5 Na2ATP, pH 7.2, adjusted to 315 mOsm with sucrose.
After establishing the whole-cell configuration, cells were held at −80 mV throughout the experiment. A current-voltage (I-V) protocol stepping from −100 to +20 mV for 1 second was applied to measure Kv7.2/Kv7.3 currents, each step was followed by a 200 ms pulse to 0 mV to measure the tail currents. From the I-V protocol a Boltzmann fit was applied to generate activation curves. Data were sampled at 25 kHz and filtered at 5 kHz (Bessel). Data were produced using multihole QChips. The I-V protocol was applied several times to establish the response in control conditions (typically 0.3% DMSO) and in the presence of the test compound.
Data were reviewed in Sophion Analyser version 6.5.2 (Sophion Bioscience) for recording quality and filters were applied to remove any failed wells. Leak subtraction was applied to all recordings. Data filters for multihole QChips were typically: seal resistance>4 MΩ, capacitance >20 pF, baseline VHalf between 0 to −40 mV, baseline holding current between −2 to 2 nA, baseline steady state current at 20 mV >4 nA unless otherwise stated.
Analysis of Data for Assessment of Potency
10 concentrations of test compounds were applied to individual wells in quadruplicate to assess potency as a 1 in 3 dilution series from the maximal concentration of 30 μM. The average shift in the voltage for half activation (Vhalf) for each concentration was used to generate concentration-response curves fitted with a 4-parameter logistic model to estimate the EC50 from the point of inflection of the curve and the maximal shift in the Vhalf from the top of the curve.
The lower the EC50 value, the higher the potency of the analyzed compound. The selectivity criteria is assigned on the basis of the maximal shift in the Vhalf at 30 μM. […] In Table 3, ND means that selectivity was not determined.

Compound	EC50	Kv7.2/7.3 ΔV1/2
O=C(NCc1ccnc(OCC(F)(F)F)n1)N[C@@H]1CCc2ccc(F)cc21 [Compound 167]	10200 nM	20.68 mV
Cc1cccc2c1[C@H](NC(=O)NCc1ccnc(OCC(F)(F)F)c1)CC2 [Compound 168]	2240 nM	37.25 mV
Cc1cccc2c1[C@@H](NC(=O)NCc1ccnc(OCC(F)(F)F)c1)CC2 [Compound 169]	1400 nM	24.08 mV
O=C(NCc1ccnc(OCC(F)(F)F)c1)N[C@@H]1CCOc2ccc(F)cc21 [Compound 170]	1540 nM	42.82 mV
O=C(NCc1ccnc(OCC(F)(F)F)n1)N[C@@H]1CCc2ccccc21 [Compound 171]	1240 nM	48.06 mV
O=C(NCc1ccnc(OCC(F)(F)F)c1)N[C@@H]1CCc2sccc21 [Compound 172]	1980 nM	55.13 mV
O=C(NCc1ccnc(OCC(F)(F)F)c1)N[C@H]1CSc2ccccc2C1 [Compound 173]	330 nM	31.15 mV
O=C(NCc1ccnc(OCC(F)(F)F)c1)N[C@@H]1CCSc2ccccc21 [Compound 174]	1240 nM	47.65 mV
O=C(NCc1ccnc(OCC(F)(F)F)c1)N[C@H]1CCSc2ccccc21 [Compound 175]	1220 nM	20.52 mV
O=C(NCc1ccnc(OCC(F)(F)F)c1)N[C@@H]1CCc2c(F)cc(F)cc21 [Compound 176]	1090 nM	40.89 mV
COc1ccc2c(c1)CCC[C@H]2NC(=O)NCc1ccnc(OCC(F)(F)F)c1 [Compound 177]	2280 nM	54.8 mV
COc1ccc2c(c1)CCC[C@@H]2NC(=O)NCc1ccnc(OCC(F)(F)F)c1 [Compound 178]	8110 nM	27.73 mV
O=C(NCc1ccnc(OCC(F)(F)F)c1)N[C@@H]1CCOc2c(F)cccc21 [Compound 179]	2000 nM	33.61 mV
O=C(NCc1ccnc(OCC(F)(F)F)n1)N[C@@H]1CCCc2ccccc21 [Compound 180]	5830 nM	24.71 mV
O=C(NCc1ccnc(OCC(F)(F)F)c1)N[C@H]1CCOc2c(F)cccc21 [Compound 181]	700 nM	24.16 mV
COc1ccc2c(c1)[C@H](NC(=O)NCc1ccnc(OCC(F)(F)F)c1)CCO2 [Compound 182]	1550 nM	37.46 mV
COc1cccc2c1CCC[C@H]2NC(=O)NCc1ccnc(OCC(F)(F)F)c1 [Compound 183]	2490 nM	43.65 mV
Cc1cccc2c1OCC[C@H]2NC(=O)NCc1ccnc(OCC(F)(F)F)c1 [Compound 184]	1230 nM	42.17 mV
Cc1cccc2c1OCC[C@@H]2NC(=O)NCc1ccnc(OCC(F)(F)F)c1 [Compound 185]	5390 nM	22.68 mV
O=C(NCc1ccnc(OCC(F)(F)F)c1)N[C@@H]1COc2ccccc2C1 [Compound 186]	290 nM	34.07 mV
O=C(NCc1ccnc(OCC(F)(F)F)c1)N[C@H]1COc2ccccc2C1 [Compound 187]	2330 nM	21.99 mV
O=C(NCc1ccnc(OCC(F)(F)F)c1)N[C@@H]1CCC[C@H]1c1ccc(F)cc1 [Compound 188]	470 nM	28.3 mV
O=C(NCc1ccnc(OCC(F)(F)F)c1)N[C@H]1CCOc2cccc(F)c21 [Compound 189]	2720 nM	32.95 mV
COc1ccc2c(c1)C[C@H](NC(=O)NCc1ccnc(OCC(F)(F)F)c1)CC2 [Compound 190]	820 nM	20.58 mV
O=C(NCc1ccnc(OCC(F)(F)F)c1)N[C@@H]1CCCc2cc(F)ccc21 [Compound 191]	1170 nM	46.54 mV

Compound	EC50	Kv7.2/7.3 ΔV1/2
CC1(C)C[C@@H](NC(=O)NCc2ccnc(OCC(F)(F)F)c2)c2ccccc21 [Compound 192]	1690 nM	47.09 mV
CC1(C)C[C@H](NC(=O)NCc2ccnc(OCC(F)(F)F)c2)c2ccccc21 [Compound 193]	520 nM	23.15 mV
COc1cccc(N2CC[C@@H](NC(=O)NCc3ccnc(OCC(F)(F)F)c3)C2)c1 [Compound 194]	2580 nM	29.55 mV
O=C(NCc1ccnc(OCC(F)(F)F)c1)N[C@@H]1CCO[C@@H](c2ccccc2)C1 [Compound 195]	6670 nM	39.68 mV
O=C(NCc1ccnc(OCC(F)(F)F)c1)N[C@@H]1CC[C@H](c2ccccc2)C1 [Compound 196]	1540 nM	56.75 mV
O=C(NCc1ccnc(OCC(F)(F)F)c1)N[C@H]1CCO[C@@H]1c1ccccc1 [Compound 197]	7620 nM	39.86 mV
O=C(NCc1ccnc(OCC(F)(F)F)c1)N[C@H]1CC[C@@H](c2ccccc2F)C1 [Compound 198]	1370 nM	76.04 mV
O=C(NCc1ccnc(OCC(F)(F)F)c1)N[C@@H]1COc2c(F)cccc21 [Compound 199]	1820 nM	36.36 mV
CC1(C)C[C@H](NC(=O)NCc2ccnc(OCC(F)(F)F)c2)c2ccccc2O1 [Compound 200]	2510 nM	25.04 mV
O=C(NCc1ccnc(OCC(F)(F)F)c1)NC[C@H]1COc2ccccc2C1 [Compound 201]	2220 nM	27.95 mV
COc1ccccc1N1CC[C@@H](NC(=O)NCc2ccnc(OCC(F)(F)F)c2)C1 [Compound 202]	4340 nM	26.02 mV
CO[C@@H]1CCOc2c(NC(=O)NCc3ccnc(OCC(F)(F)F)c3)cccc21 [Compound 203]	2870 nM	20.92 mV
O=C(NCc1ccnc(OCC(F)(F)F)c1)N[C@@H]1CCOc2cc(F)ccc21 [Compound 204]	980 nM	38.78 mV
C[C@@H](Oc1cc(CNC(=O)N[C@@H]2CCOc3ccccc32)ncn1)C(F)(F)F [Compound 205]	7090 nM	40.29 mV
C[C@@H](Oc1cc(CNC(=O)N[C@@H]2CCOc3ccc(F)cc32)ncn1)C(F)(F)F [Compound 206]	6780 nM	33.98 mV
C[C@@H](Oc1cc(CNC(=O)N[C@@H]2COc3ccccc32)ncn1)C(F)(F)F [Compound 207]	10200 nM	23.90 mV
C[C@@H](Oc1cc(CNC(=O)N[C@@H]2COc3ccc(F)cc32)ncn1)C(F)(F)F [Compound 208]	8150 nM	23.96 mV
COc1ccc2c(c1)[C@H](NC(=O)NCc1cc(O[C@H](C)C(F)(F)F)ncn1)CCO2 [Compound 209]	9700 nM	37.49 mV
COc1ccc([C@@H](C)NC(=O)NCc2ccnc(OCC(F)(F)F)c2)cc1 [Compound 210]	4540 nM	27.31 mV
O=C(NCc1ccc(OC(F)(F)F)cc1)NCc1ccnc(OCC(F)(F)F)c1 [Compound 211]	3130 nM	22.62 mV
O=C(NCc1ccnc(OCC(F)(F)F)c1)N[C@@H](C1CC1)C(F)(F)F [Compound 212]	1490 nM	41.94 mV
O=C(NCc1ccnc(OCC(F)(F)F)c1)N[C@H](C1CC1)C(F)(F)F [Compound 213]	680 nM	31.5 mV
O=C(NCc1ccnc(OCC(F)(F)F)c1)N[C@@H]1CCN(CC(F)(F)F)C1 [Compound 214]	8950 nM	30.24 mV
COc1ccc([C@H](CF)NC(=O)NCc2ccnc(OCC(F)(F)F)c2)cc1 [Compound 215]	4170 nM	24.17 mV
